Source: patent US6743583B2, “Identification of drugs and drug targets by detection of the stress response” (priority 2000, dated 2004)

How the values were obtained:
[1] = tested on: ymr007w strain; details: previously shown, Giaever et al. 1999; cited from earlier work
[2] = tested on: Wildtype strain; test: Microarray fold transcriptional induction of stress response genes; format: cell-based, Saccharomyces cerevisiae
Experimental: (§1) In order to identify stress response genes suitable for use in the methods of the present invention, the induction of various stress response genes was tested using microarrays. Three 50 ml cultures were grown at 30° C., a wildtype strain, an alg7 heterozygous strain, and a ymr007w heterozygous strain (the ymr007w strain has been previously shown to be sensitive to tunicamycin, see Giaever, G. et al. (1999) Nature Genet. 21(3):278-283). The wildtype strain was grown in the absence of drug as well as in the presence of […] tunicamycin at an O.D.600 of 1, or approximately 2×10^7 cells/ml for one hour. The alg7 and ymr007w heterozygotes were grown in the presence of […] tunicamycin at an O.D.600 of 1, or approximately 2×10^7 cells/ml for 1 hour. mRNA was then collected from all four samples using standard techniques. cDNA was then prepared from […] of polyadenylated RNA from each sample, using a dT21 primer and Superscript II reverse transcriptase (GibcoBRL) according to manufacturer's recommendation. cDNA was fragmented using DNAseI (GibcoBRL), biotinylated using ddATP (NEN) and Terminal Transferase (Boehringer), and hybridized to yeast full genome arrays (Affymetrix) as described in L. Wodicka et al. (1997) Nature Biotechnol. 15, 1359-1367. Data was analyzed using Affymetrix software.
The fold induction of the indicated stress response gene is relative to expression levels in the absence of exposure to the indicated stimuli for the wildtype strain.

[3] = tested on: alg7 heterozygote; test: HSP26 promoter GFP-uv reporter stress response, fluorimeter; format: cell-based, Saccharomyces cerevisiae; design: key: F = fluorescent activity from hsp reporter construct, indicating stress response is induced; NF = no fluorescence, no induction of stress response; details: predicted expectations
Excerpt: (§2) Stress response gene reporter constructs are generally constructed as follows: approximately 500 bp to approximately 1,000 bp or more region upstream of the first start codon of the stress gene of interest (the region encompassing the stress response gene promoter) is fused to the coding region of a reporter polypeptide (e.g., GFP-uv in pRS316 (Sikorski and Hieter (1989) Genetics 122(1):19-27, Clontech). In a specific exemplary construct, approximately 500 bp of the sequence upstream of the hsp26 gene were ligated to the coding region of GFP-uv in pRS316 to provide for expression of the GFP-uv reporter polypeptide under control of the HSP26 promoter.
(§3) 80% of all heterozygous deletion strains of Saccharomyces cerevisiae have been constructed. Heterozygous deletion strains were generated using homologous gene transplacement (Rothstein, R. (1991) Meth. Enzymol. 194:281-301) in wild-type diploid strains using standard methods. The resulting heterozygotes carry a deletion in one of the two copies of a given gene.
(§4) The above-described HSP26 construct and a control construct (containing no upstream HSP26 promoter sequence) is transformed into 4 strains: a wildtype strain and strains heterozygous for ALG7, HIS3, and TUB2. The his3 heterozygous strain is sensitive to 3-amino triazole; the alg7 heterozygous strain is sensitive to tunicamycin; and the tub2 heterozygous strain is sensitive to benomyl. The expression of hsp26 activity is then monitored using a fluorimeter. Comparisons (with predicted expectations) are as follows: […]

[4] = tested on: his3 heterozygote; test: as above; format: cell-based, Saccharomyces cerevisiae; design: key: F = fluorescent activity from hsp reporter construct, indicating stress response is induced; NF = no fluorescence, no induction of stress response; details: predicted expectations
Excerpt: as §2, §3, §4

[5] = tested on: tub2 heterozygote; test: as above; format: cell-based, Saccharomyces cerevisiae; design: key: F = fluorescent activity from hsp reporter construct, indicating stress response is induced; NF = no fluorescence, no induction of stress response; details: predicted expectations
Excerpt: as §2, §3, §4

[6] = tested on: alg7 heterozygous strain; details: cited from earlier work
[7] = tested on: alg7 heterozygous strain; test: Microarray fold transcriptional induction of stress response genes; format: cell-based, Saccharomyces cerevisiae; details: alg7 heterozygote, tunicamycin 0.6 μM, 1 hr, relative to wildtype no drug
Experimental: as §1
(§5) In other experiments, the alg 7 and vmr007 heterozygous deletion strains were tested for induction of the stress response in the presence of 0.6 μM tunicamycin for 1 hr (for detailed methods see Example 4). The numbers indicate the fold induction (positive values) or the fold repression (negative values) relative to that of wildype expression in the absence of drug.

[8] = tested on: ymr007w heterozygous strain; test: as above; format: cell-based, Saccharomyces cerevisiae; details: ymr007w heterozygote, tunicamycin 0.6 μM, 1 hr, relative to wildtype no drug
Experimental: as §1, §5

[9] = tested on: Wildtype strain; test: HSP26 promoter GFP-uv reporter stress response, fluorimeter; format: cell-based, Saccharomyces cerevisiae; design: key: F = fluorescent activity from hsp reporter construct, indicating stress response is induced; NF = no fluorescence, no induction of stress response; details: predicted expectations
Excerpt: as §2, §4

[10] = TUN 0.6 μM, wildtype, relative to no drug
[11] = Wildtype, tunicamycin 0.6 μM, 1 hr, relative to wildtype no drug (Table 9)

Substance: tunicamycin
- sensitivity of strain to drug [1]: sensitive
- fold induction of AMS1 (YGL156W) [2, 10]: 20 fold
- fold induction of DDR48 (YMR173w) [2, 10]: 4.3 fold
- fold induction of GFA1 (YKL104C) [2, 10]: 11.2 fold
- fold induction of GSC2 (YGR032W) [2, 10]: 9.2 fold
- fold induction of HSP10 (YOR020C) [2, 10]: 2 fold
- fold induction of HSP12 (YFL014W) [2, 10]: 2.9 fold
- fold induction of HSP26 (YBR072W) [2, 10]: 18 fold
- fold induction of HSP30 (YCR021C) [2, 10]: 2 fold
- fold induction of HSP42 (YDR171w) [2, 10]: 6 fold
- fold induction of HSP60 (YLR259C) [2, 10]: 1 fold
- fold induction of HSP78 (YDR258C) [2, 10]: 6.5 fold
- fold induction of HSP82 (YPL240C) [2, 10]: 2.8 fold
- fold induction of HSP104 (YLL026W) [2, 10]: 2 fold
- fold induction of HXT5 (YHR096C) [2, 10]: 200 fold
- fold induction of ISF1 (YMR081C) [2, 10]: 3.5 fold
- fold induction of PAI3 (YMR174C) [2, 10]: 6.1 fold
- fold induction of PRY1 (YJL079C) [2, 10]: 13 fold
- fold induction of PUT1 (YLR142W) [2, 10]: 25 fold
- fold induction of SNZ3 (YFL059W) [2, 10]: 25 fold
- fold induction of SSA1 (YAL005C) [2, 10]: 1 fold
- fold induction of TSI1 (YLR178C) [2, 10]: 6.2 fold
- fold induction of UBC5 (YDR059c) [2, 10]: 2.1 fold
- fold induction of YBL049W [2, 10]: 15 fold
- fold induction of YDR018C [2, 10]: 7.5 fold
- fold induction of YFL030W [2, 10]: 11 fold
- fold induction of YFR026C [2, 10]: 20.9 fold
- fold induction of YGR043C [2, 10]: 17 fold
- fold induction of YIL042C [2, 10]: 5 fold
- fold induction of YIL117C [2, 10]: 13 fold
- fold induction of YJL144W [2, 10]: 19.1 fold
- fold induction of YKL107W [2, 10]: 112 fold
- fold induction of YLR053C [2, 10]: 200 fold
- fold induction of YLR080W [2, 10]: 8.4 fold
- fold induction of YLR194C [2, 10]: 5.1 fold
- fold induction of YMR040W [2, 10]: 12.8 fold
- fold induction of YMR090W [2, 10]: 5.6 fold
- fold induction of YMR107W [2, 10]: 79 fold
- fold induction of YNL194C [2, 10]: 4.5 fold
- fold induction of YPS3 (YLR121C) [2, 10]: 15 fold
- fold induction (positive) or fold repression (negative) of HSP26 (YBR072W) [2, 11]: 17 fold
- fold induction (positive) or fold repression (negative) of HXT5 (YHR096C) [2, 11]: 50 fold
- fold induction (positive) or fold repression (negative) of YGR043C [2, 11]: 17 fold
- fold induction (positive) or fold repression (negative) of YMR107W [2, 11]: 40 fold
- fold induction (positive) or fold repression (negative) of YPS3 (YLR121C) [2, 11]: 15 fold
- fluorescent activity from hsp26 reporter construct [3]: NF
- fluorescent activity from hsp26 reporter construct [4]: F
- fluorescent activity from hsp26 reporter construct [5]: F
- sensitivity of strain to drug [6]: sensitive
- fold induction (positive) or fold repression (negative) of HXT5 (YHR096C) [7]: 1 fold
- fold induction (positive) or fold repression (negative) of YMR107W [7]: 1 fold
- fold induction (positive) or fold repression (negative) of HSP26 (YBR072W) [8]: 1.4 fold
- fold induction (positive) or fold repression (negative) of HXT5 (YHR096C) [8]: 1 fold
- fold induction (positive) or fold repression (negative) of YMR107W [8]: 1 fold
- fluorescent activity from hsp26 reporter construct [9]: F
